The source of these data is patent publication US8642643B2, “CXCR2 antagonists” (Sanofi, priority 2006, dated 2014).

In this experiment the target is T1, human CXCR2 (Homo sapiens, UniProt P25025).
T1 construct: expressed in transfected cells; host or cells: CHO-K1
T1 sequence (P25025 1-360): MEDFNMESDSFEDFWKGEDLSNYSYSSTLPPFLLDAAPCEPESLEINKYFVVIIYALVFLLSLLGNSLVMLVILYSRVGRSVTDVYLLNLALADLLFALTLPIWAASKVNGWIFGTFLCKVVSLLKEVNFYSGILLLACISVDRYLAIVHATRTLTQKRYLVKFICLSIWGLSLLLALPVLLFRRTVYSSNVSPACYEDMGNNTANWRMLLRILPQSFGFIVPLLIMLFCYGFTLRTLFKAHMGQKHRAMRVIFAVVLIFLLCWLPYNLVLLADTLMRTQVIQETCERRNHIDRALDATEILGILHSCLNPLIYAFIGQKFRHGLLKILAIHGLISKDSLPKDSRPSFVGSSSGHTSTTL
In words: CXCR2 inhibition: calcium fluorescence assay (FLIPR). It is filed as cell-based. The conditions noted are these: chemokine IL-8; CHO-K1 cells stably transfected with human CXCR2 and Gα16; calcium response (Fluo-4). An excerpt:
Determination of CXCR2 Inhibition: Calcium Fluorescence Assay (FLIPR)
The assay is based on the detection of intracellular calcium changes detected by the selective, calcium-chelating dye, Fluo-4 (Molecular Probes). A large fluorescence intensity increase is observed upon calcium association with Fluo-4. The dye is delivered to the cell interior using an acetoxymethylester form of Fluo-4, where the intracellular esterase activity results in the charged species being released and trapped within the cytoplasm of the cell. […] By co-expressing the CXCR2 receptor and the promiscuous Gα16 protein, activation of this chemokine receptor is directed into this phospholipase C cascade resulting in intracellular calcium mobilization.
The CHO-K1 cells stably transfected with human CXCR2 and the promiscuous Gα16 protein were maintained in a log phase of growth at 37° C. and 5% CO2 in the following media: Iscove's, 10% FBS, 1× Penicillin-Streptomycin, 400 μg/ml G418 and 350 μg/ml Zeocin. Approximately 24-48 hours prior to the assay, 20,000-30,000 cells/well were plated onto a 96-well black/clear bottomed assay plate (Becton Dickinson) with a well volume of 180 μl. For dye loading the culture medium was carefully removed and replaced by 100 μl/well dye solution (4 μM Fluo-4 in 135 mM NaCl, 5 mM KCl, 1 mM magnesium sulphate, 5 mM glucose, 20 mM hepes, 2.5 mM probenecid; pH 7.4). Cells were incubated for 1 h at 37° C., and then washed 3× with buffer. After washing 90 μl buffer/well were left. Increasing concentrations of compound was added in 45 μl buffer (4× concentrated) followed by 10 min incubation at 37° C. Then the chemokine (10-100 nM) was applied in 45 μl buffer (4× concentrated) and the measurement performed for 2 min. The IC50 value of a compound was determined by calculation of % inhibition of total calcium response to the chemokine.

The IC50 is the point on the concentration scale where inhibition reaches its midpoint. For `CCC(C)(NC(=O)c1ccc2c(c1OCc1nc3ccccc3s1)CCCC2)C(=O)O` (stereo not shown) [Example 5, 2-{[1-(Benzothiazol-2-ylmethoxy)-5,6,7,8-tetrahydro-naphthalene-2-carbonyl]-amino}-2-methyl-butyric acid], the IC50 was 400 nM. Take `CC(C)(NC(=O)c1ccc2c(c1OCc1ccc(C(F)(F)F)cc1F)CCCC2)C(=O)O` [Example 8, 2-{[1-(2-Fluoro-4-trifluoromethyl-benzyloxy)-5,6,7,8-tetrahydro-naphthalene-2-carbonyl]-amino}-2-methyl-propionic acid]: the IC50 is 1800 nM. Turning to `CC(C)(NC(=O)c1ccc2sccc2c1OCc1ccc(C(F)(F)F)cc1)C(=O)O` [Example 13, 2-Methyl-2-{[4-(4-trifluoromethyl-benzyloxy)-benzo[b]thiophene-5-carbonyl]-amino}-propionic acid], the IC50 is 1100 nM.

As to `CCC(C)(NC(=O)c1ccc2c(c1OCc1ccc(OC(F)(F)F)cc1)CCCC2)C(=O)O` (stereo not shown) [Example 9, 2-Methyl-2-{[1-(4-trifluoromethoxy-benzyloxy)-5,6,7,8-tetrahydro-naphthalene-2-carbonyl]-amino}-butyric acid], the IC50 stood at 1500 nM. With `CC(C)(NC(=O)c1ccc2c(c1OCc1nc3ccccc3s1)CCCC2)C(=O)O` [Example 2, 2-{[1-(Benzothiazol-2-ylmethoxy)-5,6,7,8-tetrahydro-naphthalene-2-carbonyl]-amino}-2-methyl-propionic acid], the half-maximal inhibitory concentration (IC50) was determined as 600 nM. The same measure for `Cc1cc(C(=O)NC(C)(C)C(=O)O)c(OCc2ccc(C(F)(F)F)cc2)c2c1CCC2` [Example 11, 2-Methyl-2-{[7-methyl-4-(4-trifluoromethyl-benzyloxy)-indane-5-carbonyl]-amino}-propionic acid]: 1600 nM. For `CC(C)(NC(=O)c1ccc2ccsc2c1OCc1ccc(C(F)(F)F)cc1)C(=O)O` [Example 12, 2-Methyl-2-{[7-(4-trifluoromethyl-benzyloxy)-benzo[b]thiophene-6-carbonyl]-amino}-propionic acid], the IC50 turned out to be 700 nM.
